Data taken from US12570615B2, “Quinazolinone derivatives” (Hoffmann-La Roche Inc., priority 2021, dated 2026).

What was measured:
BRAF (wt) = BRAF (wt) (Homo sapiens, UniProt P15056); assay: KD BRAF (wt) (Table 1); assay type: binding
BRAF (V600E) = BRAF (V600E) (Homo sapiens, UniProt P15056, V600E); assay: KD BRAF (V600E) (Table 1); assay type: binding
[1] = test system: P-ERK (ERK phospho-T202/Y204) in HCT116 cells expressing WT BRAF; assay: HTRF assay for P-ERK determination in HCT116 cells (BRAF activation); assay type: cell-based; details: Homo sapiens, HCT-116, drug incubation 1 hour, concentration giving 50% of the maximum activation achieved by Dabrafenib
Text: (§1) A375 is a cellular cancer model expressing V600E mutated BRAF and HCT116 a cellular cancer model expressing WT BRAF. First generation BRAF inhibitors such as e.g. dabrafenib induce a paradox effect on tumour cells in that they inhibit the growth of V600E mutated BRAF cells (such as e.g. A375), while they activate growth in WT BRAF cells (such as e.g. HCT 116). ERK 1,2 phosphorylation (terminal member of the phosphorylation cascade of the MAPK pathway) is hereafter reported as main readout for the activation status of the MAPK pathway. DMEM no-phenol red medium supplemented with L-glutamine was purchased from (Thermo Fisher Scientific). Fetal bovine serum (FBS) was purchased from VWR. Advanced ERK phospho-T202/Y204 kit—10,000 tests was purchased from Cisbio cat #64AERPEH. A375 (catalog #CRL-1619) and HCT116 (catalog #CCL-247) cells were originally obtained from American type Culture Collection (ATCC) and banked by the Roche repository. 384-Well microplates utilized were purchased from Greiner Bio-One, 384-well, (With Lid, HiBase, Low volume cat 784-080).
(§2) Prior to the assay, A375 and HCT116 cell lines are maintained in DMEM no-phenol red medium supplemented with 10% fetal bovine serum (FBS). Following compound treatment, P-ERK levels are determined by measuring FRET fluorescence signal induced by selective binding of 2 antibodies provided in the mentioned kit (Cisbio cat #64AERPEH) on ERK protein when phosphorylated at Thr202/Tyr204. Briefly, 8000 cells/well in 12 μl media/well are plated in the 384-well plate and left overnight in the incubator (at 37° C. with 5% CO2-humidified atmosphere), the following day the plate is treated in duplicate with test compounds, dabrafenib and PLX8394 (the latter two as controls) at the following final drug concentrations: 10 μM-3 μM 1 μM-0.3 μM-0.1 μM-0.03 μM-0, 01 μM-0.003 μM-0.001 μM, all wells are subjected to DMSO normalization and drug incubation occurs for 1 hour. Then, […] of a 4× lysis buffer supplied with the kit are added to the wells, the plate is then centrifuged for 30 second (3000 rpm) and incubated on a plate shaker for 1 h at rt.
(§3) At the end of the incubation 4 μL/well of advanced P-ERK antibody solution (prepared according to manufacturer's instruction) followed by 4 μL/well of criptate P-ERK antibody solution (prepared according to manufacturer's instruction) (Cisbio cat #64AERPEH) are added to test wells.
(§4) In order to allow proper data normalization control wells non drug treated reported in the following table are always included in each plate (according to manufacturer's instruction):
(§5) The plate is then centrifuged at 3000 rpm for 30 second, sealed to prevent evaporation and incubated overnight in the dark at room temperature.
(§6) The plate is then analyzed and fluorescence emission value collected through a Pherastast FSX (BMG Labtech) apparatus at […].
(§7) The obtained fluorescence values are processed according to the formula Ratio=[…]*10000 then the average of the ratio on the blank is subtracted to all values.
Data are normalized in the case of HCT116 cells (BRAF activation) considering the average of the ratio (blank subtracted) derived by DMSO only treated cells as 0% and by considering the average of the ratio (blank subtracted) derived by Dabrafenib treated cells at the concentration which provides the highest signal as 100%. Individual points are fitted with either sigmoidal or bell shape curves. The EC50 is the concentration at which activation equal to 50% of the maximum activation achieved by Dabrafenib is obtained.

[2] = test system: P-ERK (ERK phospho-T202/Y204) in A375 cells expressing V600E mutated BRAF; assay: HTRF assay for P-ERK determination in A375 cells (BRAF inhibition); assay type: cell-based; details: Homo sapiens, A-375, P-ERK level, drug incubation 1 hour, DMSO = 100%, 10 μM Dabrafenib = 0%
Text: as §1, §2, §3, §4, §5, §6, §7
Data are normalized in the case of A375 cells (BRAF inhibition) considering the average of the ratio (blank subtracted) derived by DMSO only treated cells as 100% and by considering the average of the ratio (blank subtracted) derived by 10 μM Dabrafenib treated cells as 0%. Mean of the normalized points are fitted with sigmoidal curve and IC50 determined.

Chain of BRAF (wt) (P15056 whole entry): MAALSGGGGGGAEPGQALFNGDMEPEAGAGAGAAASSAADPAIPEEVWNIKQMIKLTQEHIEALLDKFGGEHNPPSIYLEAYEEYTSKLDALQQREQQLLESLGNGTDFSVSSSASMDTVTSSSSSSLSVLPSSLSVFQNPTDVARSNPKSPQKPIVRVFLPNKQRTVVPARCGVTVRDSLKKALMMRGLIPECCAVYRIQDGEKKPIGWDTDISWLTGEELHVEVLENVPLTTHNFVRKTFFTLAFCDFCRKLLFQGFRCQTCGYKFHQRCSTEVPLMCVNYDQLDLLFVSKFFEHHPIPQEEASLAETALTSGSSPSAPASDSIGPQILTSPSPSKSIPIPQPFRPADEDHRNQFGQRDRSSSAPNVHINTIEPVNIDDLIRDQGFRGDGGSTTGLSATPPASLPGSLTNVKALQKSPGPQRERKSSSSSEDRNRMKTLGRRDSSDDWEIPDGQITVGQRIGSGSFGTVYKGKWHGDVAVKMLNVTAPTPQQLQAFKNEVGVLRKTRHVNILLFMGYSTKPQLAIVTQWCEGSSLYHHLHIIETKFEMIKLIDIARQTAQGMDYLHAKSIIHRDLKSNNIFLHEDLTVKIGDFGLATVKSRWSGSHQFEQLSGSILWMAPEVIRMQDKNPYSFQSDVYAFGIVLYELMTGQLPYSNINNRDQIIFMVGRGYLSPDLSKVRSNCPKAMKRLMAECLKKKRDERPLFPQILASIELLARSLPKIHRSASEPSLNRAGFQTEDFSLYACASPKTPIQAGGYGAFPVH
Chain of BRAF (V600E) (P15056 whole entry V600E): as the sequence (P15056 whole entry) above, with V600E counted along it

`CCN(C)S(=O)(=O)Nc1ccc(F)c(Oc2ccc3ncn(CCCC(=O)OC(C)(C)C)c(=O)c3c2)c1C#N` [Example 1, tert-butyl 4-[6-[2-cyano-3-[[ethyl(methyl)sulfamoyl]amino]-6-fluoro-phenoxy]-4-oxo-quinazolin-3-yl]butanoate] showed a Kd (BRAF (wt)) of 15.3 nM, a Kd (BRAF (V600E)) of 26.7 nM and an EC50 [1] of 2360 nM. The IC50 [2] was 19.8 nM.
`CC(C)(C)OC(=O)N1CCC(CCn2cnc3ccc(Oc4c(F)ccc(NS(=O)(=O)N5CC[C@@H](F)C5)c4C#N)cc3c2=O)CC1` [Example 2, tert-butyl 4-[2-[6-[2-cyano-6-fluoro-3-[[(3R)-3-fluoropyrrolidin-1-yl]sulfonylamino]phenoxy]-4-oxo-quinazolin-3-yl]ethyl]piperidine-1-carboxylate] showed a Kd (BRAF (wt)) of 18.9 nM, a Kd (BRAF (V600E)) of 21.4 nM and an EC50 [1] of 2250 nM. For the same molecule, the IC50 [2] was 30.3 nM.
With `CCN(C)S(=O)(=O)Nc1ccc(F)c(Oc2ccc3ncn(CCC4CCN(C(=O)OC(C)(C)C)CC4)c(=O)c3c2)c1C#N` [Example 3, tert-butyl 4-[2-[6-[2-cyano-3-[[ethyl(methyl)sulfamoyl]amino]-6-fluoro-phenoxy]-4-oxo-quinazolin-3-yl]ethyl]piperidine-1-carboxylate] the Kd (BRAF (wt)) was 78.3 nM, the Kd (BRAF (V600E)) was 162 nM and the EC50 [1] was 6400 nM. The IC50 [2] was 41 nM.
For `CC(C)(C)OC(=O)NCCCn1cnc2ccc(Oc3c(F)ccc(NS(=O)(=O)N4CC[C@@H](F)C4)c3C#N)cc2c1=O` [Example 4, tert-butyl N-[3-[6-[2-cyano-6-fluoro-3-[[(3R)-3-fluoropyrrolidin-1-yl]sulfonylamino]phenoxy]-4-oxo-quinazolin-3-yl]propyl]carbamate], the Kd (BRAF (wt)) was 1.09 nM, the Kd (BRAF (V600E)) was 2.75 nM and the EC50 [1] was 7080 nM. It also gave an IC50 [2] of 73.5 nM.
Molecule `CC(C)(C)OC(=O)NCCCn1cnc2ccc(Oc3c(F)ccc(NS(=O)(=O)N4CCCC4)c3C#N)cc2c1=O` [Example 5, tert-butyl N-[3-[6-[2-cyano-6-fluoro-3-(pyrrolidin-1-ylsulfonylamino)phenoxy]-4-oxo-quinazolin-3-yl]propyl]carbamate] has a Kd (BRAF (wt)) of 1.35 nM, a Kd (BRAF (V600E)) of 2.82 nM and an EC50 [1] of 1190 nM. It also gave an IC50 [2] of 18.1 nM.
`CCN(C)S(=O)(=O)Nc1ccc(F)c(Oc2ccc3ncn(CCCNC(=O)OC(C)(C)C)c(=O)c3c2)c1C#N` [Example 6, tert-butyl N-[3-[6-[2-cyano-3-[[ethyl(methyl)sulfamoyl]amino]-6-fluoro-phenoxy]-4-oxo-quinazolin-3-yl]propyl]carbamate] showed a Kd (BRAF (wt)) of 6.36 nM, a Kd (BRAF (V600E)) of 19.4 nM and an EC50 [1] of no less than 10000 nM. It also gave an IC50 [2] of 41.6 nM.
`CC(C)(C)OC(=O)N1CCC(CCn2cnc3ccc(Oc4c(F)ccc(NS(=O)(=O)N5CCCC5)c4C#N)cc3c2=O)CC1` [Example 7, tert-butyl 4-[2-[6-[2-cyano-6-fluoro-3-(pyrrolidin-1-ylsulfonylamino)phenoxy]-4-oxo-quinazolin-3-yl]ethyl]piperidine-1-carboxylate] showed a Kd (BRAF (wt)) of 12.2 nM, a Kd (BRAF (V600E)) of 20.8 nM and an EC50 [1] of 2100 nM. The IC50 [2] was 52 nM.
Molecule `CC(C)(C)OC(=O)NCCCn1cnc2ccc(Oc3c(F)ccc(NS(=O)(=O)C4CCCC4)c3C#N)cc2c1=O` [Example 8, tert-butyl N-[3-[6-[2-cyano-3-(cyclopentylsulfonylamino)-6-fluoro-phenoxy]-4-oxo-quinazolin-3-yl]propyl]carbamate] has a Kd (BRAF (wt)) of 4.86 nM, a Kd (BRAF (V600E)) of 7.83 nM and an EC50 [1] of 2430 nM. For the same molecule, the IC50 [2] was 33.9 nM.
`CC(C)(C)OC(=O)NCCCn1cnc2ccc(Oc3c(F)ccc(NS(=O)(=O)N4CCC4)c3C#N)cc2c1=O` [Example 9, tert-butyl N-[3-[6-[3-(azetidin-1-ylsulfonylamino)-2-cyano-6-fluoro-phenoxy]-4-oxo-quinazolin-3-yl]propyl]carbamate] showed a Kd (BRAF (wt)) of 0.69 nM, a Kd (BRAF (V600E)) of 0.97 nM and an EC50 [1] of 624 nM. It also gave an IC50 [2] of 28.9 nM.
Molecule `CC(C)(C)OC(=O)N1CCN(CCn2cnc3ccc(Oc4c(F)ccc(NS(=O)(=O)N5CC[C@@H](F)C5)c4C#N)cc3c2=O)CC1` [Example 10, tert-butyl 4-[2-[6-[2-cyano-6-fluoro-3-[[(3R)-3-fluoropyrrolidin-1-yl]sulfonylamino]phenoxy]-4-oxo-quinazolin-3-yl]ethyl]piperazine-1-carboxylate] has a Kd (BRAF (wt)) of 3.51 nM, a Kd (BRAF (V600E)) of 4.82 nM and an EC50 [1] of 1530 nM. The IC50 [2] was 36.7 nM.
Work on `N#Cc1c(NS(=O)(=O)C2CCCC2)ccc(F)c1Oc1ccc2ncn(CCCc3ccccc3)c(=O)c2c1` [Example 11, N-[2-cyano-4-fluoro-3-[4-oxo-3-(3-phenylpropyl)quinazolin-6-yl]oxy-phenyl]cyclopentanesulfonamide] yielded a Kd (BRAF (wt)) of 24.4 nM, a Kd (BRAF (V600E)) of 50.5 nM and an EC50 [1] of 908 nM. For the same molecule, the IC50 [2] was 52.5 nM.
With `CC(C)(C)OC(=O)NCCCn1cnc2ccc(Oc3c(F)ccc(NS(=O)(=O)C4CCCCC4)c3C#N)cc2c1=O` [Example 12, tert-butyl N-[3-[6-[2-cyano-3-(cyclohexylsulfonylamino)-6-fluoro-phenoxy]-4-oxo-quinazolin-3-yl]propyl]carbamate] the Kd (BRAF (wt)) was 27.6 nM, the Kd (BRAF (V600E)) was 59.2 nM and the EC50 [1] was 4930 nM. For the same molecule, the IC50 [2] was 55.9 nM.
With `CCC(C)S(=O)(=O)Nc1ccc(F)c(Oc2ccc3ncn(CCCNC(=O)OC(C)(C)C)c(=O)c3c2)c1C#N` (centres unmarked) [Example 13, tert-butyl N-[3-[6-[2-cyano-6-fluoro-3-(sec-butylsulfonylamino)phenoxy]-4-oxo-quinazolin-3-yl]propyl]carbamate] the Kd (BRAF (wt)) was 12.1 nM, the Kd (BRAF (V600E)) was 19.3 nM and the EC50 [1] was 2820 nM. The IC50 [2] was 36.3 nM.
`CC(C)(C)OC(=O)N1CCC(CCn2cnc3ccc(Oc4c(F)ccc(NS(=O)(=O)C5CCCCC5)c4C#N)cc3c2=O)CC1` [Example 14, tert-butyl 4-[2-[6-[2-cyano-3-(cyclohexylsulfonylamino)-6-fluoro-phenoxy]-4-oxo-quinazolin-3-yl]ethyl]piperidine-1-carboxylate] was tested, and the Kd (BRAF (wt)) was 54.3 nM, the Kd (BRAF (V600E)) was 114 nM and the EC50 [1] was 4850 nM. It also gave an IC50 [2] of 254 nM.
`CCC(C)S(=O)(=O)Nc1ccc(F)c(Oc2ccc3ncn(CCC4CCN(C(=O)OC(C)(C)C)CC4)c(=O)c3c2)c1C#N` (centres unmarked) [Example 15, tert-butyl 4-[2-[6-[2-cyano-6-fluoro-3-(sec-butylsulfonylamino)phenoxy]-4-oxo-quinazolin-3-yl]ethyl]piperidine-1-carboxylate] gave a Kd (BRAF (wt)) of 50.4 nM, a Kd (BRAF (V600E)) of 93.5 nM and an EC50 [1] of 4040 nM. For the same molecule, the IC50 [2] was 78.9 nM.
With `CC(C)(C)OC(=O)N1CCN(CCn2cnc3ccc(Oc4c(F)ccc(NS(=O)(=O)N5CCCC5)c4C#N)cc3c2=O)CC1` [Example 16, tert-butyl 4-[2-[6-[2-cyano-6-fluoro-3-(pyrrolidin-1-ylsulfonylamino)phenoxy]-4-oxo-quinazolin-3-yl]ethyl]piperazine-1-carboxylate] the Kd (BRAF (wt)) was 1.61 nM, the Kd (BRAF (V600E)) was 2.16 nM and the EC50 [1] was 240 nM. It also gave an IC50 [2] of 11 nM.
Work on `CC(C)(C)OC(=O)N1CCC(CCn2cnc3ccc(Oc4c(F)ccc(NS(=O)(=O)C5CCCC5)c4C#N)cc3c2=O)CC1` [Example 17, tert-butyl 4-[2-[6-[2-cyano-3-(cyclopentylsulfonylamino)-6-fluoro-phenoxy]-4-oxo-quinazolin-3-yl]ethyl]piperidine-1-carboxylate] yielded a Kd (BRAF (wt)) of 12.3 nM, a Kd (BRAF (V600E)) of 24.6 nM and an EC50 [1] of 1140 nM. The IC50 [2] was 57.1 nM.
